Drawing on PubChem BioAssay (NCI), this text covers GI50 and TGI for 17 compounds.

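Following 48 hours of exposure in 96-well plates, responses at five concentrations were used to interpolate endpoints linearly. GI50: concentration for 50% inhibition of growth. The concentration for full growth arrest is given as TGI.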

For the first assay, the system named is HL-60(TB) leukemia. The assay can be described thus: NCI tumour cell line growth inhibition, 48 h.
As to `Fc1cc2[nH]ncc2c2c3c(c(-c4cn[nH]c4)nc12)CCCC3`, the GI50 is 1.81 µM and the TGI stood at 5.53 µM.
With `COc1cc(OC)cc(-c2cc(=O)c3c(OC)c(OC)c(OC)c(OC)c3o2)c1`, the TGI is > 100 µM.
The same measure, in the same setting: the figure for `C=C(Br)C(C)(Br)CCC(Br)C(C)(C)Cl` (stereo not drawn) is 16.2 µM.
As to `CSc1nc(NC2OCC(OC(C)=O)C(OC(C)=O)C2OC(C)=O)c(N=CC=Nc2c(NC3OCC(OC(C)=O)C(OC(C)=O)C3OC(C)=O)nc(SC)[nH]c2=O)c(=O)[nH]1` (stereo not drawn), the TGI is > 100 µM.
Consider `O=C1c2cc3c(cc2-c2c1c1ccc(F)cc1c(=O)n2CCCNCCO)OCO3`, for which the GI50 is 0.0291 µM and the TGI was determined as 0.198 µM.
For `O=C1OC(O)[C@@H]2[C@H]1[C@H]1CC[C@@H]2O1` (stereo partly drawn), in that order: > 42.3 µM and > 100 µM.
Regarding `COc1cccc(-c2nc(-c3ccc(NC(=O)C(C)C)cc3)[nH]c2-c2ccnc(Br)c2)c1`, the GI50 is 1.56 µM and the TGI is 5.24 µM.
For `COc1ccc(-c2nnc(COc3ccc(NC(=O)Nc4cc(C(F)(F)F)cc(C(F)(F)F)c4)cc3F)o2)cc1`, in that order: 2.34 µM and 6.02 µM.
Take `COc1ccc(/C=C(/C#N)n2nnc3cccc(F)c32)cc1`: the GI50 was 0.527 µM and the TGI came out at 16.2 µM.

In the next assay the test system is HS 578T breast. Description: NCI tumour cell line growth inhibition, 48 h.
Regarding `O=C(Nc1ccc(Cl)cc1)c1cccc(NC2=C(Cl)C(=O)N(Cc3ccccc3)C2=O)c1`, the GI50 was 13.2 µM and the TGI is 46.3 µM.
Turning to `Nc1ncnc2n[nH]c(Nc3ccc(F)cc3)c12`, the GI50 was 20.6 µM and the TGI was > 100 µM.
On to `CCN(CC)c1ccc(-c2cc(-c3cc(OC)c(OC)c(OC)c3)nc(N3CCOCC3)c2C#N)cc1`, for which the GI50 is 0.507 µM and the TGI was 12.2 µM.
Take `CC(=O)OC1=CC(n2cc(F)c(=O)[nH]c2=O)OC(C)C1=O` (stereo not drawn): the TGI is > 100 µM.
Consider `CC(=O)[C@@]12O[C@@H]1CC1C3CCC4=CC(O)CCC4(C)C3CCC12C` (stereo partly drawn), for which the GI50 was 27.9 µM and the TGI amounted to 90.2 µM.
`NC1(C(=O)OCc2ccccc2)CCCC1` had a TGI of 79.7 µM.
Consider `Cc1cc(/C=C/c2ccc3cc(N(C)C)ccc3[n+]2C)c(C)n1-c1ccccc1`, for which the GI50 is 0.361 µM and the TGI came out at 9.56 µM.
For `Cn1cnc([N+](=O)[O-])c1S(=O)(=O)Oc1cccc2ccccc12`, in that order: 26.5 µM and > 100 µM.
As for `Fc1cc2[nH]ncc2c2c3c(c(-c4cn[nH]c4)nc12)CCCC3`, the GI50 is 0.624 µM and the TGI is 3.46 µM.
For the compound `COc1cc(OC)cc(-c2cc(=O)c3c(OC)c(OC)c(OC)c(OC)c3o2)c1`, the TGI is 90.6 µM.
Still for that read-out and setting: the figure for `C=C(Br)C(C)(Br)CCC(Br)C(C)(C)Cl` (stereo not drawn) is 72 µM; for `CSc1nc(NC2OCC(OC(C)=O)C(OC(C)=O)C2OC(C)=O)c(N=CC=Nc2c(NC3OCC(OC(C)=O)C(OC(C)=O)C3OC(C)=O)nc(SC)[nH]c2=O)c(=O)[nH]1` (stereo not drawn) it is > 100 µM.
For `O=C1c2cc3c(cc2-c2c1c1ccc(F)cc1c(=O)n2CCCNCCO)OCO3`, the GI50 was 0.381 µM and the TGI was determined as 2.68 µM.
The matching figures for `O=C1OC(O)[C@@H]2[C@H]1[C@H]1CC[C@@H]2O1` (stereo partly drawn): > 100 µM and > 100 µM.
For `COc1cccc(-c2nc(-c3ccc(NC(=O)C(C)C)cc3)[nH]c2-c2ccnc(Br)c2)c1`, in that order: 0.548 µM and 3.93 µM.
The matching figures for `COc1ccc(-c2nnc(COc3ccc(NC(=O)Nc4cc(C(F)(F)F)cc(C(F)(F)F)c4)cc3F)o2)cc1`: 1.99 µM and 5.55 µM.
Regarding `COc1ccc(/C=C(/C#N)n2nnc3cccc(F)c32)cc1`, the GI50 is 1.66 µM and the TGI was 6.41 µM.

For another assay, the system named is HT29 colon. Description: NCI tumour cell line growth inhibition, 48 h.
Turning to `O=C(Nc1ccc(Cl)cc1)c1cccc(NC2=C(Cl)C(=O)N(Cc3ccccc3)C2=O)c1`, the GI50 was 32.4 µM and the TGI is > 100 µM.
The matching figures for `Nc1ncnc2n[nH]c(Nc3ccc(F)cc3)c12`: 25.3 µM and > 100 µM.
As to `CCN(CC)c1ccc(-c2cc(-c3cc(OC)c(OC)c(OC)c3)nc(N3CCOCC3)c2C#N)cc1`, the GI50 was 0.532 µM and the TGI was 8.87 µM.
Take `CC(=O)OC1=CC(n2cc(F)c(=O)[nH]c2=O)OC(C)C1=O` (stereo not drawn): the TGI is > 100 µM.
As to `CC(=O)[C@@]12O[C@@H]1CC1C3CCC4=CC(O)CCC4(C)C3CCC12C` (stereo partly drawn), the GI50 was 47.9 µM and the TGI is > 100 µM.
As for `NC1(C(=O)OCc2ccccc2)CCCC1`, the TGI is > 100 µM.
`Cc1cc(/C=C/c2ccc3cc(N(C)C)ccc3[n+]2C)c(C)n1-c1ccccc1`: the GI50 is 0.133 µM and the TGI stood at 2.52 µM.
The matching figures for `Cn1cnc([N+](=O)[O-])c1S(=O)(=O)Oc1cccc2ccccc12`: 1.8 µM and 3.99 µM.
In the case of `Fc1cc2[nH]ncc2c2c3c(c(-c4cn[nH]c4)nc12)CCCC3`, the GI50 was 1.24 µM and the TGI is > 100 µM.
Take `COc1cc(OC)cc(-c2cc(=O)c3c(OC)c(OC)c(OC)c(OC)c3o2)c1`: the TGI was > 100 µM.
Compound `C=C(Br)C(C)(Br)CCC(Br)C(C)(C)Cl` (stereo not drawn) had a TGI of 40.7 µM.
For `CSc1nc(NC2OCC(OC(C)=O)C(OC(C)=O)C2OC(C)=O)c(N=CC=Nc2c(NC3OCC(OC(C)=O)C(OC(C)=O)C3OC(C)=O)nc(SC)[nH]c2=O)c(=O)[nH]1` (stereo not drawn), the TGI was > 100 µM.
Turning to `O=C1c2cc3c(cc2-c2c1c1ccc(F)cc1c(=O)n2CCCNCCO)OCO3`, the GI50 was 0.0279 µM and the TGI came to 0.152 µM.
As to `O=C1OC(O)[C@@H]2[C@H]1[C@H]1CC[C@@H]2O1` (stereo partly drawn), the GI50 was 4.99 µM and the TGI came to 32.2 µM.
The matching figures for `COc1cccc(-c2nc(-c3ccc(NC(=O)C(C)C)cc3)[nH]c2-c2ccnc(Br)c2)c1`: 3.07 µM and > 100 µM.
For `COc1ccc(-c2nnc(COc3ccc(NC(=O)Nc4cc(C(F)(F)F)cc(C(F)(F)F)c4)cc3F)o2)cc1`, in that order: 2.21 µM and 4.74 µM.
For `COc1ccc(/C=C(/C#N)n2nnc3cccc(F)c32)cc1`, the GI50 is 0.41 µM and the TGI was > 100 µM.
